The text below walks through data of US20060210554A1, “Detection of cholesterol ozonation products” (priority 2003, published 2006).

One data set addresses apoB-100 of human LDL (Homo sapiens, UniProt P04114). In words: Circular dichroism of LDL secondary structure. Conditions: LDL 100 μg/ml, compound 10 μM, PBS pH 7.4, 37° C., up to 48 h; for random coil of LDL protein after incubation: normal LDL 27±2%; for a helical structure of LDL protein after incubation: normal LDL ~40±2%. (Circular dichroism is widely used to follow secondary structure.)

Data set [1] in a line: Aldolization of ketoaldehyde 4a with amino acids (1H NMR). It is filed as physicochemical. The settings on record: L-Lys(OEt).2HCl, 1 equivalent, 100 h, DMSO-d6/D2O. On the procedure:
Aldolization of ketoaldehyde 4a with amino acids. […] To this solution was added 1 equivalent of either: a) L-proline, b) glycine, c) L-lysine hydrochloride or d) L-lysine ethyl ester dihydrochloride. At time points the samples were analyzed by ^1H NMR.

Sequence of apoB-100 of human LDL (P04114 28-4563): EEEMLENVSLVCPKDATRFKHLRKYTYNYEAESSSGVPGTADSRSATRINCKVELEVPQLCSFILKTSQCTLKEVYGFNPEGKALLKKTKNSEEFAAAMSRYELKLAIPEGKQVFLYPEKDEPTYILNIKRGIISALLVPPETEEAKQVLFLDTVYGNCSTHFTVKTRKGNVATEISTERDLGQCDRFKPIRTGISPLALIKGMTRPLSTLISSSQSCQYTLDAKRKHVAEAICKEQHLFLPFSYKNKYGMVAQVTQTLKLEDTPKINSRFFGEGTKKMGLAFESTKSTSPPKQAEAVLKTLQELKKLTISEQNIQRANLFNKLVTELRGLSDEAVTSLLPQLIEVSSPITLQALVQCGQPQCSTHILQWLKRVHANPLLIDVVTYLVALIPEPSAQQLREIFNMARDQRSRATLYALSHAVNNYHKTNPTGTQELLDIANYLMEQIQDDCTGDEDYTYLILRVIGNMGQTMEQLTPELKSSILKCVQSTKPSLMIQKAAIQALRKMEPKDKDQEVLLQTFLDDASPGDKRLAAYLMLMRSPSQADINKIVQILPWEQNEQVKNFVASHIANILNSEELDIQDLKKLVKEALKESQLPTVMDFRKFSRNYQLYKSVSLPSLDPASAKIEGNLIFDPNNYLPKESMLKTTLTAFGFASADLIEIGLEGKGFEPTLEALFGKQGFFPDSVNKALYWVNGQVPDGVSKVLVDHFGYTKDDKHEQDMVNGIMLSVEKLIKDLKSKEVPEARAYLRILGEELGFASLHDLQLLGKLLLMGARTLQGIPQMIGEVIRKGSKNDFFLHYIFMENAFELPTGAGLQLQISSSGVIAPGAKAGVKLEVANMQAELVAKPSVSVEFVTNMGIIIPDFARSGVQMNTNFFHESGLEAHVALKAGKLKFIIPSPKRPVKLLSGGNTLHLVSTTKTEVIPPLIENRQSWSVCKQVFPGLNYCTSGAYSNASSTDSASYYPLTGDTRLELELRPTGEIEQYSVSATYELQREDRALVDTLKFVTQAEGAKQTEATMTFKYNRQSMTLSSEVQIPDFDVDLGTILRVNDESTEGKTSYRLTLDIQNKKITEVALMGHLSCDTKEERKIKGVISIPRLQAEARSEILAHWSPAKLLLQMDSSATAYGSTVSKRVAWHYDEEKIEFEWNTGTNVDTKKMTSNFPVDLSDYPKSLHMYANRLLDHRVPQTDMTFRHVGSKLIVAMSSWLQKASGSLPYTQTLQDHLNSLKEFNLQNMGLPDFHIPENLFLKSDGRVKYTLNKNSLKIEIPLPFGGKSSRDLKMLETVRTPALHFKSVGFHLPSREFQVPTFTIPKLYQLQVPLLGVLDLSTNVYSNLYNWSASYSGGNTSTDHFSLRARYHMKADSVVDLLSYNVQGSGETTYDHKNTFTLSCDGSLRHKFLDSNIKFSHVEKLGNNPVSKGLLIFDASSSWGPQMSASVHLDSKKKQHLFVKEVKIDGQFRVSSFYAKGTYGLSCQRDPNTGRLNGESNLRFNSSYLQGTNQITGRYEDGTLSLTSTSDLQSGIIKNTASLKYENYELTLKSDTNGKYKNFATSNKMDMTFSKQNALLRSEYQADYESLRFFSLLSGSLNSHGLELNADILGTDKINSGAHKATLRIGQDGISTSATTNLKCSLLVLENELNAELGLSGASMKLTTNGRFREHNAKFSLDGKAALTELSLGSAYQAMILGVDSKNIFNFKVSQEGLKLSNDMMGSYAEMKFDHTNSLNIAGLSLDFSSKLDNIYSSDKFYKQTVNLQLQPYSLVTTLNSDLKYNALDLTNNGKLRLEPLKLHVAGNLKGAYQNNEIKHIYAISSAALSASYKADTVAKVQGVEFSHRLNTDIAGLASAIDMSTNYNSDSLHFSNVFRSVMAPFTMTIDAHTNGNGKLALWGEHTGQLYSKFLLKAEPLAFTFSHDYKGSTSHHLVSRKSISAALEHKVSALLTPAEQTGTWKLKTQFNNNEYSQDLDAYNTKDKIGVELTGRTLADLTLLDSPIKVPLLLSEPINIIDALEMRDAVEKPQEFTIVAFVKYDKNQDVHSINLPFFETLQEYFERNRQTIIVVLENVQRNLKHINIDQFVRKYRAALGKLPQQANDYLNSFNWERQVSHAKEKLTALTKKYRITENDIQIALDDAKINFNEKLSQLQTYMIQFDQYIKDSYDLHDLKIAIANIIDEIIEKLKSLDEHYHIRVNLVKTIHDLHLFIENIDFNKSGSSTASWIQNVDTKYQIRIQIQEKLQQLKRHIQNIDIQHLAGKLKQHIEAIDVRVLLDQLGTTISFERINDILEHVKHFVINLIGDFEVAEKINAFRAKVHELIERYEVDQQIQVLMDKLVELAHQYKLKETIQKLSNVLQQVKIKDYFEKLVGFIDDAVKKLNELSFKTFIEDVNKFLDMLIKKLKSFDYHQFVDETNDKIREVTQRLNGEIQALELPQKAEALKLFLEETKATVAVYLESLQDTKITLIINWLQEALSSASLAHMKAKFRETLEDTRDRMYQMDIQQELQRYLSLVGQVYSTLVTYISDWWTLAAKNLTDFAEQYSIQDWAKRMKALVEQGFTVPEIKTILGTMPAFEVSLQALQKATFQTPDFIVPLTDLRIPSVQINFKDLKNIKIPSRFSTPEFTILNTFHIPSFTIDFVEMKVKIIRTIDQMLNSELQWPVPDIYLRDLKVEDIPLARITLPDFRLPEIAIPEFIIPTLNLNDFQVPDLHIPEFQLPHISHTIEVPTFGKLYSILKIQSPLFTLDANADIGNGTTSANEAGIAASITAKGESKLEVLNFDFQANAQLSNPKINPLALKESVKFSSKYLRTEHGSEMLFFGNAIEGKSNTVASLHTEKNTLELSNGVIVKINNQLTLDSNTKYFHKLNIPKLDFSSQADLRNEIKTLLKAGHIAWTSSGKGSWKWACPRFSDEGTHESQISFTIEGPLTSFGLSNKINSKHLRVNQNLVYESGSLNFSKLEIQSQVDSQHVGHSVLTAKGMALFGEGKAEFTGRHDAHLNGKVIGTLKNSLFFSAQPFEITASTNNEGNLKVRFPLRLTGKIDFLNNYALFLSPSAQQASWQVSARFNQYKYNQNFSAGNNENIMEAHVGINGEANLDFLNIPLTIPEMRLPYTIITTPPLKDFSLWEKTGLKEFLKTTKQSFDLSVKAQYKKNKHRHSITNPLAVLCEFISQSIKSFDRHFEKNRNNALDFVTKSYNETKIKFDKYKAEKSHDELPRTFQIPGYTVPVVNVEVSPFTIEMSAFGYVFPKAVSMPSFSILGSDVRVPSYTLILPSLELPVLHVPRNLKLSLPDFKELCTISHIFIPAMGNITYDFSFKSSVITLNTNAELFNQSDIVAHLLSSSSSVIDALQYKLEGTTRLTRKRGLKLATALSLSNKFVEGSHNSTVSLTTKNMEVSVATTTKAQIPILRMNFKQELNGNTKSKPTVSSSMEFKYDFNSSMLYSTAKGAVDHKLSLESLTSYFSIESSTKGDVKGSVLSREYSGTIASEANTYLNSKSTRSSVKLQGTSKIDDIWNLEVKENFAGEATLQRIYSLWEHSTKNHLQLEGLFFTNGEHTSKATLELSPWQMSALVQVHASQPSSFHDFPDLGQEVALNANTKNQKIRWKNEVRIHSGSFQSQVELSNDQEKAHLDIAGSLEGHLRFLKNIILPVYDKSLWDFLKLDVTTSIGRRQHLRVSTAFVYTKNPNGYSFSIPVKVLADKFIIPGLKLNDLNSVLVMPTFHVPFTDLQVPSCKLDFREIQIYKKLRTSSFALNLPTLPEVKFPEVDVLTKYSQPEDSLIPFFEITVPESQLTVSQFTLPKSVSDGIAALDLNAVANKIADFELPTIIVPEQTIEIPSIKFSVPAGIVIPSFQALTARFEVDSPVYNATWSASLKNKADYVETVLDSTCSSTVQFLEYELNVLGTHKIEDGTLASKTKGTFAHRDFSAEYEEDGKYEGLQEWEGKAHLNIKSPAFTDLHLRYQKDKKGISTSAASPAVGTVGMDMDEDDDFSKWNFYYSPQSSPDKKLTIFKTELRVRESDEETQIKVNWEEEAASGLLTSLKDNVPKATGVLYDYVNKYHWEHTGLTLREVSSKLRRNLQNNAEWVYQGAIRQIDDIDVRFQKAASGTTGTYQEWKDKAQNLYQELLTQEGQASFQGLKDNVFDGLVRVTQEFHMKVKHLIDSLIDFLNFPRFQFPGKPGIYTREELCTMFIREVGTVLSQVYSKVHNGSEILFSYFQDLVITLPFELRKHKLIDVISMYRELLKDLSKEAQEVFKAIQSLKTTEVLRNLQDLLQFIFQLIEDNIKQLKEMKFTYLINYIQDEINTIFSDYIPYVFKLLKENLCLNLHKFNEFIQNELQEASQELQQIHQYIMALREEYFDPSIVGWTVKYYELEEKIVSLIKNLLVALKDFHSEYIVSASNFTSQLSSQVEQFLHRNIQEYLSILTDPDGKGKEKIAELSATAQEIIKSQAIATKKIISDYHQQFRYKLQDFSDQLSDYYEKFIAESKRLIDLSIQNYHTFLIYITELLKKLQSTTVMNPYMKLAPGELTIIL
Experimental for apoB-100 of human LDL: Circular dichroism. […] Spectra were recorded in the peptidic range (200-260 nm). To increase the signal-to-noise ratio, multiple spectra (three) were averaged for each measurement.

Turning to `CC(C)CCC[C@@H](C)[C@H]1CCC2C(CC=O)C([C@@]3(C)CC[C@H](O)CC3=O)CC[C@@]21C` (some centres unmarked) [4a, 3βHydroxy-5-oxo-5,6-secocholestan-6-al], at apoB-100 of human LDL, the “random coil of LDL protein after incubation” value is recorded as ~39±2% and the “a helical structure of LDL protein after incubation” value is reported as ~23±5%. For the same molecule, the “conversion of 4a into 5a” value in data set [1] turned out to be 62 % conversion.
As for `CC(C)CCC[C@@H](C)[C@H]1CCC2C3C(CC[C@@]21C)[C@@]1(C)CC[C@H](O)C[C@@]1(O)[C@@H]3C=O` (stereo partly drawn) [5a, 3β-Hydroxy-5β-hydroxy-B-norcholestane-6β-carboxaldehyde], on apoB-100 of human LDL, the “random coil of LDL protein after incubation” value amounted to 32±4% and the “a helical structure of LDL protein after incubation” value is ~20±2%.
